What was measured:
[1] = tested on: EGF-mediated tyrosine phosphorylation in Triton extracts of A-431 cell membranes; assay: Phosphoamino acid analysis of labeled Triton extracts of A-431 cell membranes; format: biochemical, human; details: for Total Phosphoprotein / P-serine radioactivity / P-threonine radioactivity / P-tyrosine radioactivity: 349 nmoles/mg protein; for Total Phosphoprotein: 1/7 aliquot
Procedure: Triton extracts of A-431 cell membranes, prepared substantially as described previously, containing 37.5 μg protein, were labeled with [γ-^32 P] ATP (5 μM, 5 μCi) for 3 minutes at 0° in the presence and absence of Boc-LeuCH2 Br (349 nmoles/mg protein). Protein samples were hydrolyzed and phosphoamino acids were separated by the following procedure.
After labeling, membrane proteins were treated with 10% trichloroacetic acid (TCA) containing 10 mM sodium pyrophosphate and 100 μg BSA. After incubation for one hour at 0°, the foregoing mixture was centrifuged at 3,000 rpm and the resulting pellet washed 3 times with 10% TCA/10 mM sodium pyrophosphate. After recentrifugation, the final pellet was washed with ethanol, dried under vacuum, and dissolved in 70 μL of 0.1N NaOH prior to transfer to glass test tubes containing 0.5 mL 6N hydrochloric acid. The tubes were sealed under vacuum and samples were hydrolyzed at 100° for one hour. The resulting hydrolysates were lyophilized, resuspended in 30 μL water and electrophoresed on Whatman 3MM paper for 3 hours at 3,000 V, at pH 3.5 in 5% acetic acid/0.5% pyridine. Phosphotyrosine, phosphoserine, and phosphothreonine (10 μg of each) were employed as markers. Following electrophoresis, spots corresponding to the foregoing phosphoamino acids were located by ninhydrin treatment, excised, and bleached with 6% hydrogen peroxide. Radioactivity of the spots was determined by scintillation counting and expressed as cpm. Total phosphoprotein of a 1/7 aliquot of each reaction mixture was determined as previously described.

[2] = tested on: A-431 plasma membrane extracts (EGF-mediated protein phosphorylation); assay: Protein phosphorylation in solubilized A-431 plasma membrane extracts, with or without EGF; format: biochemical, human
Procedure: The capacity of certain peptide halomethyl ketones to inhibit protein phosphorylation is illustrated by Examples 1-8, below, in which solubilized plasma membranes prepared from A-431 human epidermoid carcinoma cells were incubated with [γ-^32 P] ATP in the presence of EGF.
A-431 human epidermoid carcinoma cells were grown in Dulbecco's modified Eagle's medium containing 5% fetal calf serum. Plasma membranes were isolated by a method substantially similar to that described by Thom et al., Biochem J. 168:187 (1977), and kept at -70°. Solubilization of plasma membranes was performed substantially as described by Cohen et al., J. Biol. Chem. 255:4834 (1980). In this procedure, 7.5 mg/mL protein was solubilized with 5% Triton X-100 (octylphenol), 10% glycerol, and 20 mM Hepes buffer (N-2-hydroxyethylpiperazine-N^1 -2-ethanesulfonic acid), pH 7.4. This mixture was incubated for 20 minutes at about 23°, followed by centrifugation at 100,000 xg for 60 minutes.
Protein phosphorylation assays were conducted substantially as described by Carpenter et al., J. Biol. Chem. 254:4884 (1979). Each assay mixture contained, in a final volume of 70 μL: 20 mM Hepes, pH 7.4, 0.01% bovine serum albumin (BSA), 15-150 μg protein in Triton extract, 100 ng EGF, 1 mM MnCl2 and 10-20 μM [γ-^32 P] ATP (2-4 μCi). Peptide halomethyl ketones were added as solutions in ethanol; an equivalent volume of ethanol was added to controls. Assay mixtures were incubated at about 23° for ten minutes, with or without added EGF. Mixtures were then held at 0° for ten minutes before initiation of phosphorylation by addition of 15 μM γ-^32 P) ATP (2 μCi). Reactions were terminated after 3 minutes at 0° by applying an aliquot of the assay mixture to a Whatman 3MM filter paper (2×2 cm), which was then suspended in ice-cold 10% trichloroacetic acid containing 10 mM pyrophosphate. This suspension was gently shaken for a period of 1 hour, during which the trichloroacetic acid/pyrophosphate mixture was changed three times. Finally, the filter papers were dried and radioactivity measured by scintillation counting.

lymphoma cell line YAC-1 = assay: Tumor cell line growth inhibition, YAC-1; format: cell-based
Procedure: In this series of experiments, the tumor cell growth inhibitory capacity of various peptide halomethyl ketones was tested against lymphoma cell lines YAC-1 and MOLT-4, and against an erythroleukemia cell line, K-562. The lymphoma cell line YAC-1 is described by Kiessling, et al., Eur. J. Immunol. 5:112 (1975), and MOLT-4 is described by Minowada, et al., J. Natl. Cancer Inst. 49:891 (1972) and Nilsson, et al., Int. J. Cancer 15:321 (1975). The erythroleukemia cell line K-562 is described by Lozzio, et al., Leuk. Res. 3:363 (1979). In these experiments, cells were grown on standard media as 10 mL suspension cultures. Initial cell density was 10^5 cells/mL. At day 0, test compounds were introduced in ethanol; control cultures received an equal volume of ethanol. Cells were counted at the times indicated.

CC(C)CC(NC(=O)OC(C)(C)C)C(=O)CBr (stereo not shown) [Boc-LeuCH2 Br]
Total Phosphoprotein ([1]; EGF absent, control 3408): 2024 cpm | P-serine radioactivity ([1]; EGF absent, control 328): 300 cpm | P-threonine radioactivity ([1]; EGF absent, control 1100): 1180 cpm | P-tyrosine radioactivity ([1]; EGF absent, control 1152): 488 cpm | Total Phosphoprotein ([1]; EGF present, control 12204): 5332 cpm | P-serine radioactivity ([1]; EGF present, control 494): 262 cpm | P-threonine radioactivity ([1]; EGF present, control 1994): 1270 cpm | P-tyrosine radioactivity ([1]; EGF present, control 18000): 5554 cpm | inhibition of tyrosine phosphorylation (in words) ([1]; both the presence and absence of EGF): pronounced inhibition of tyrosine phosphorylation | % inhibition, EGF Added ([2]; 400 nmol/mg protein): 65% | EGF Added (pmol 32P incorporated/min/mg protein) ([2]; 400 nmol/mg protein, control 20.2): 7.0 pmol^32 P incorporated/min/mg | % inhibition, EGF Added ([2]; 477 nmol/mg protein): 72% | EGF Added (pmol 32P incorporated/min/mg protein) ([2]; 477 nmol/mg protein, control 96.2): 27.4 pmol^32 P incorporated/min/mg | % inhibition, No EGF Added ([2]; 400 nmol/mg protein): 69% | No EGF Added (pmol 32P incorporated/min/mg protein) ([2]; 400 nmol/mg protein, control 7.3): 2.3 pmol^32 P incorporated/min/mg | % inhibition, No EGF Added ([2]; 477 nmol/mg protein): 74% | No EGF Added (pmol 32P incorporated/min/mg protein) ([2]; 477 nmol/mg protein, control 21.6): 5.6 pmol^32 P incorporated/min/mg | % Growth Relative to Control Cultures (lymphoma cell line YAC-1; 0.4 μg/mL, day 4): 97% | % Growth Relative to Control Cultures (lymphoma cell line YAC-1; 2.0 μg/mL, day 1): 42% | % Growth Relative to Control Cultures (lymphoma cell line YAC-1; 2.0 μg/mL, day 2): 31% | % Growth Relative to Control Cultures (lymphoma cell line YAC-1; 2.0 μg/mL, day 3): 28% | % Growth Relative to Control Cultures (lymphoma cell line YAC-1; 2.0 μg/mL, day 4): 12% | % Growth Relative to Control Cultures (lymphoma cell line YAC-1; 2.0 μg/mL, day 7): 28% | % Growth Relative to Control Cultures (lymphoma cell line YAC-1; 10. μg/mL, day 1): 67% | % Growth Relative to Control Cultures (lymphoma cell line YAC-1; 10. μg/mL, day 2): 32% | % Growth Relative to Control Cultures (lymphoma cell line YAC-1; 10. μg/mL, day 3): 22% | % Growth Relative to Control Cultures (lymphoma cell line YAC-1; 10. μg/mL, day 4): 13% | % Growth Relative to Control Cultures (lymphoma cell line YAC-1; 10. μg/mL, day 7): 16%

From US4582821A, “Inhibition of cyclic nucleotide independent protein kinases” (E. I. Du Pont de Nemours and Company, priority 1983, dated 1986)
